One data set deals with A431 cells. Particulars: for more potent than the drug alone: EGFR over-expressing cancer cells (A431, MDA-MB-468), vs auristatin E. The method, then: (§1) Cells were cultured to 80% confluency in T75 culture flasks using Dulbecco's Modified Eagle's Medium (DMEM) as growth medium. The cell density was determined using a Coulter Counter. The cells were seeded onto 96 well plates and grown for 24 h. to 50% confluency. […] At the end of the incubation period, the cells were fixed using 10% trichloroacetic acid, followed by washing with distilled water and drying. The cellular proteins were stained using 50 μL of 0.4% sulforhodamine B (SRB) in 1% acetic acid. Unbound SRB was washed with 1% acetic acid and the plates were dried overnight. The cell-bound SRB was then solubilized using 200 μL of 10 mM unbuffered Tris base solution. SRB absorbance was measured at 560 nm wavelength using a Plate Reader. The percent viability of cells was plotted as a function of log concentration and data was analyzed in GraphPad Prism Version 5.0 software (GraphPad Software, Inc., California, USA) using a nonlinear-regression curve fit (variable slope four parameter equation).

Another data set relates to HEK 293 cells. The method, then:
as §1

The subject of a further data set is MDA-MB-468 cells. Kind of data set: In vitro cytotoxicity, sulforhodamine B assay. The data set is classed as cell-based. Particulars: MDA-MB-468, 72 h, SRB. The method, then:
as §1
On the technique in general: The SRB assay estimates cell density from bound dye.

The nature of data set [1]: Peptide-drug conjugate pH hydrolysis study. The data set is classed as physicochemical. On the procedure: Peptide-drug conjugate was evaluated for half-life determination at pH 5 and 7.4. For this, a 1 mg/mL concentration of PDC was incubated in ammonium bicarbonate buffers, pH 5 and 7.4. Degradation of PDC was evaluated by calculating the area under the curve after 0, 0.5, 1, 2, 4, 6 and 48 hours using HPLC with a gradient method, with TEAA buffer pH 7 and acetonitrile.

The next data set has as its target Recombinant human EGFR (Homo sapiens, UniProt P00533). Briefly: Surface plasmon resonance on immobilized EGFR. Particulars: SPR, EGFR as immobilized surface, 1:1 binding model, 25° C. On the procedure: Binding affinity constant of antibody mimics was calculated by surface plasmon resonance (Reichert SR7000DC). A carboxymethyl dextran gold sensor chip was activated by N-hydroxysuccinimide (NHS) and N-ethyl-N″-[3-([…])propyl] carbodiimide (EDC) at 25° C. using phosphate buffered saline pH 7.4 with 0.05% tween 20 as running buffer. […] Unreactive sites were blocked by flowing over the chip 1 M ethanolamine pH 8.5 at 10 μL/min for 8 minutes. […] The resulting sensograms were globally fitted using Scrubber2 software (BioLogic Software, Campbell, Australia) in a 1:1 binding model to determine the association rate (kon), dissociation rate (kd or koff), and dissociation constant KD.

By IC50 is commonly meant the concentration that gives 50% inhibition. By half-life is commonly meant the time in which the quantity being followed falls by half. The low end stands for rapid decline, the high end for slow decline. In general, koff refers to the first-order rate constant of dissociation. The term kon denotes the second-order rate constant of association.

Read-outs that look alike come from different tables or passages of the source. Where a SMILES comes first, the peptide text is derived from it. The star is where a group is joined. X1 = CC[C@H](C)[C@@H]([C@@H](CC(=O)N1CCC[C@H]1[C@H](OC)[C@@H](C)C(=O)N[C@H](C)[C@@H](OC(=O)CCCCC(=NNC(=O)CCCCCN1C(=O)CC(*)C1=O)c1ccccc1)c1ccccc1)OC)N(C)C(=O)[C@@H](NC(=O)[C@H](C(C)C)N(C)C)C(C)C

Sequence of Recombinant human EGFR (P00533 25-1210): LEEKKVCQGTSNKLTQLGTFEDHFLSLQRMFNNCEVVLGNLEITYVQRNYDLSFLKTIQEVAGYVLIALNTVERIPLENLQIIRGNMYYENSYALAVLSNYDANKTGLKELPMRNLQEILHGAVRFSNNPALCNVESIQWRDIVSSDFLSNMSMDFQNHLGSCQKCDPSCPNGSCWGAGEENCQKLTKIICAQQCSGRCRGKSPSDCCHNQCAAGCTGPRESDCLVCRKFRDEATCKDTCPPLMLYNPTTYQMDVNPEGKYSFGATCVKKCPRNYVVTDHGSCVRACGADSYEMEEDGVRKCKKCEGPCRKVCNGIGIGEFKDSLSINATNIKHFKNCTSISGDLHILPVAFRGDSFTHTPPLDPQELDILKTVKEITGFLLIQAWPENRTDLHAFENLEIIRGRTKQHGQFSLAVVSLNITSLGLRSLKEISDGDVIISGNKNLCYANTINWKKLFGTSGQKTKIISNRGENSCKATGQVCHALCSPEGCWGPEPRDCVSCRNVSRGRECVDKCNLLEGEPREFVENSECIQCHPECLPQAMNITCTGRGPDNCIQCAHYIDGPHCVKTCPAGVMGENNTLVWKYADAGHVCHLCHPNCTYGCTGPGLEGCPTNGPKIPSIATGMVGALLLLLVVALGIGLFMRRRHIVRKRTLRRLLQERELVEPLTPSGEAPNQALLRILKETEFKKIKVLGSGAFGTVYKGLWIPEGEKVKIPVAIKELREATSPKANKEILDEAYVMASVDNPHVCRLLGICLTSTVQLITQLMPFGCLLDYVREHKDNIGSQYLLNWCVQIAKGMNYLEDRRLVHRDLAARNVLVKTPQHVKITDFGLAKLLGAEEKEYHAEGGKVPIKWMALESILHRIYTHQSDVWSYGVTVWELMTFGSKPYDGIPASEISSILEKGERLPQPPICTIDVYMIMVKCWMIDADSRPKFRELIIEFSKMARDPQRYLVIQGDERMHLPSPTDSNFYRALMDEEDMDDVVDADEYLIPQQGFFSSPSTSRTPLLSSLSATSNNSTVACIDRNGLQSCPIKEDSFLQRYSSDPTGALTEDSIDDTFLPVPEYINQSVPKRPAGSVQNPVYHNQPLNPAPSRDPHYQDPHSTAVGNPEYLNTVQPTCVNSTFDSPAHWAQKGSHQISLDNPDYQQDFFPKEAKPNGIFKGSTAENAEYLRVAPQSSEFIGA

In the case of `CC[C@H](C)[C@@H]([C@@H](CC(=O)N1CCC[C@H]1[C@H](OC)[C@@H](C)C(=O)N[C@H](C)[C@@H](O)c1ccccc1)OC)N(C)C(=O)[C@@H](NC(=O)[C@H](C(C)C)N(C)C)C(C)C` [Auristatin E, reference compound], the concentration for half-maximal inhibition (IC50) with A431 cells (A431, 72 h, SRB) was determined as 0.0246 nM; with HEK 293 cells (HEK 293, 72 h, SRB) it was 0.0626 nM; in the data set with MDA-MB-468 cells, 0.0117 nM.
In the case of `CC[C@H](C)[C@@H]([C@@H](CC(=O)N1CCC[C@H]1[C@H](OC)[C@@H](C)C(=O)N[C@H](C)[C@@H](OC(=O)CCCCC(=NNC(=O)CCCCCN1C(=O)CC(SC[C@H](NC(=O)[C@H](C)NC(=O)[C@H](CCC(=O)O)NC(=O)[C@H](Cc2ccc(O)cc2)NC(=O)[C@H](CC(=O)O)NC(=O)[C@H](Cc2ccc(O)cc2)NC(=O)[C@H](Cc2ccccc2)NC(=O)[C@@H](NC(=O)CNC(=O)[C@@H]2CCCN2C(=O)CNC(=O)[C@H](CC(N)=O)NC(=O)[C@H](CCC(=O)O)NC(=O)CNC(=O)[C@H](CO)NC(=O)[C@@H](N)Cc2c[nH]c3ccccc23)[C@@H](C)O)C(=O)O)C1=O)c1ccccc1)c1ccccc1)OC)N(C)C(=O)[C@@H](NC(=O)[C@H](C(C)C)N(C)C)C(C)C` (some centres unmarked) [PDC] (H-WSGENGPGTFYDYEAC(X1)-OH; N-terminus and C-terminus assumed), the half-life at 1 mg/mL is 2.8 h in data set [1] (pH 5, ammonium bicarbonate buffer) and above 48 h in data set [1] (pH 7.4, ammonium bicarbonate buffer). Besides, the “more potent than the drug alone” value is “approximately 10 fold” in the data set on A431 cells and “around 10 fold” with A431 cells (listed as Peptide-drug conjugate). In addition, the “potency lower than drug alone” value in the data set on HEK 293 cells (control cells (HEK 293), vs auristatin E) is on record as “more than 100 fold”.
Regarding `C[C@H](NC(=O)[C@H](CCC(=O)O)NC(=O)[C@H](Cc1ccc(O)cc1)NC(=O)[C@H](CC(=O)O)NC(=O)[C@H](Cc1ccccc1)NC(=O)[C@H](Cc1ccc(O)cc1)NC(=O)CNC(=O)[C@@H]1CCCN1C(=O)CNC(=O)[C@H](CC(N)=O)NC(=O)[C@H](CCC(=O)O)NC(=O)CNC(=O)[C@H](CO)NC(=O)[C@@H](N)Cc1c[nH]c2ccccc12)C(=O)O` [Pep6] (H-WSGENGPGYFDYEA-OH; N-terminus and C-terminus assumed), on Recombinant human EGFR, the koff is 0.00581 s⁻¹ and the association rate constant (kon) came to 1210 M⁻¹ s⁻¹.
The corresponding values for `C[C@H](NC(=O)[C@H](CCC(=O)O)NC(=O)[C@H](Cc1ccc(O)cc1)NC(=O)[C@H](CC(=O)O)NC(=O)[C@H](Cc1ccc(O)cc1)NC(=O)[C@H](Cc1ccccc1)NC(=O)[C@@H](NC(=O)CNC(=O)[C@@H]1CCCN1C(=O)CNC(=O)[C@H](CC(N)=O)NC(=O)[C@H](CCC(=O)O)NC(=O)CNC(=O)[C@H](CO)NC(=O)[C@@H](N)Cc1c[nH]c2ccccc12)[C@@H](C)O)C(=O)O` [Pep22] (H-WSGENGPGTFYDYEA-OH; N-terminus and C-terminus assumed) are 0.0259 s⁻¹ and 43500 M⁻¹ s⁻¹.
The corresponding values for `C[C@H](N)C(=O)N[C@@H](CCC(=O)O)C(=O)N[C@@H](Cc1ccc(O)cc1)C(=O)N[C@@H](CC(=O)O)C(=O)N[C@@H](Cc1ccccc1)C(=O)N[C@@H](Cc1ccc(O)cc1)C(=O)NCC(=O)N1CCC[C@H]1C(=O)NCC(=O)N[C@@H](CC(N)=O)C(=O)N[C@@H](CCC(=O)O)C(=O)NCC(=O)N[C@@H](CO)C(=O)N[C@@H](Cc1c[nH]c2ccccc12)C(=O)O` [Pep24] (H-AEYDFYGPGNEGSW-OH; N-terminus and C-terminus assumed) are 0.103 s⁻¹ and 14300 M⁻¹ s⁻¹.

Values taken from US9957325B2, “Synthetic antibody mimic peptides” (Formurex, Inc., priority 2015, dated 2018).
